# Reference: US20250000843A1, “LIGNAN-INSPIRED COMPOUNDS, METHODS OF MAKING, AND USING THEREOF” (IOWAIBO, INC., priority 2023, published 2025)
# System: MCF7 (human breast cancer cell line)
# Assay: MTT toxicity assay in MCF7 breast cancer cells
# Assay type: cell-based
# Experimental: Toxicity of the dibenzyl butyl lactone derivative (3-[(3,4-dimethoxyphenyl)cyclopentyl], 4-[(3-hydroxyphenol)methyl]oxolan-2-one) in breast cancer cells was evaluated using MTT assay. The MTT toxicity test is a colorimetric assay to measure cells' metabolic activity by serving as a substrate of cellular enzymes that reduce the tetrazolium orange dye, MTT (3-(4,5-Dimethylthiazol-2-yl)-2,5-diphenyltetrazolium bromide) to its insoluble, formazan, giving a purple color. The rate of conversion is directly proportional to cells' mitochondrial metabolic activity via NAD (P) H-dependent cellular oxidoreductase enzymes and serves as a surrogate marker of cell viability.
# Cultures of MCF7 (human breast cancer cell line) working stock (5 passages) were established under standard culture conditions in Eagle's minimum essential medium (EMEM). EMEM was supplemented with 10% fetal bovine serum (FBS), 2 mM Glutamine and Pen/Strep, and Penicillin 0.01 mg/ml.
# Cells previously expanded were seeded in 96 well plates at 1.9×10^5 and 9.6×10^4 cells/plate for 24- and 72-hours treatment respectively. This concentration is known to show the best window for the MTT assay, with better sensitivity and low variability.
# 5 mg of powdered enterolactone, dibenzyl butyl lactone derivative enantiomer A, and dibenzyl butyl lactone derivative enantiomer B were dissolved in 500 μl of DMSO at room temperature. Eight-point curves, ⅓ dilutions (highest concentration 125 μM), were prepared.
# Twenty-four hours following the seeding process, the cells were washed once with phosphate buffered saline (PBS) and treated with the respective compounds in cell culture media. Each condition was tested in triplicates. For positive and negative controls, 8 mM methyl methane sulfonate (MMS) and DMSO 100% were used respectively.
# Following compound addition, the plates were incubated for 24 and 72 hours. After the treatment period, cells were washed twice with PBS and media was replaced with MTT reagent at 0.5 mg/ml in Dulbecco's modified Eagle medium (DMEM) without phenol red. The plates were gently shaken and incubated for 4 hours. After the incubation the medium was removed and replaced by DMSO. The plates were gently shaken to solubilize the formazan crystals. Absorbance was measured using an Envision multiplate reader at a wavelength of 570 nm.
# Eight serial dilutions were prepared (125.00, 41.67, 13.89, 4.63, 1.54, 0.51, 0.17 and 0.06 µM to evaluate the compounds (in triplicate). MTT results showing cell death values above 20% are considered as having a significant toxic effect.
# MTT assay results are shown in Tables 2-7 and expressed as the percentage of cell death after treatment.
compound,measurement,setting,value
"O=C1OC[C@H](Cc2cccc(O)c2)[C@H]1Cc1cccc(O)c1 (racemic) [Enterolactone, reference compound]",Cell death #1 (%),"MCF7, 24 hours, 0.06 μM",−11.97%
same,Cell death #2 (%),"MCF7, 24 hours, 0.06 μM",−41.20%
same,Cell death #3 (%),"MCF7, 24 hours, 0.06 μM",−33.13%
same,Cell death (%) MEAN,"MCF7, 24 hours, 0.06 μM",−28.77%
same,Cell death #1 (%),"MCF7, 24 hours, 0.17 μM",−14.66%
same,Cell death #2 (%),"MCF7, 24 hours, 0.17 μM",−12.36%
same,Cell death #3 (%),"MCF7, 24 hours, 0.17 μM",−5.43%
same,Cell death (%) MEAN,"MCF7, 24 hours, 0.17 μM",−10.82%
same,Cell death #1 (%),"MCF7, 24 hours, 0.51 μM",2.26%
same,Cell death #2 (%),"MCF7, 24 hours, 0.51 μM",−23.51%
same,Cell death #3 (%),"MCF7, 24 hours, 0.51 μM",−19.28%
same,Cell death (%) MEAN,"MCF7, 24 hours, 0.51 μM",−13.51%
same,Cell death #1 (%),"MCF7, 24 hours, 1.54 μM",−16.20%
same,Cell death #2 (%),"MCF7, 24 hours, 1.54 μM",−16.97%
same,Cell death #3 (%),"MCF7, 24 hours, 1.54 μM",−21.20%
same,Cell death (%) MEAN,"MCF7, 24 hours, 1.54 μM",−18.13%
same,Cell death #1 (%),"MCF7, 24 hours, 4.63 μM",−5.05%
same,Cell death #2 (%),"MCF7, 24 hours, 4.63 μM",−19.28%
same,Cell death #3 (%),"MCF7, 24 hours, 4.63 μM",−25.82%
same,Cell death (%) MEAN,"MCF7, 24 hours, 4.63 μM",−16.71%
same,Cell death #1 (%),"MCF7, 24 hours, 13.89 μM",−10.05%
same,Cell death #2 (%),"MCF7, 24 hours, 13.89 μM",−8.13%
same,Cell death #3 (%),"MCF7, 24 hours, 13.89 μM",−3.51%
same,Cell death (%) MEAN,"MCF7, 24 hours, 13.89 μM",−7.23%
same,Cell death #1 (%),"MCF7, 24 hours, 41.67 μM",−30.05%
same,Cell death #2 (%),"MCF7, 24 hours, 41.67 μM",−30.43%
same,Cell death #3 (%),"MCF7, 24 hours, 41.67 μM",−40.43%
same,Cell death (%) MEAN,"MCF7, 24 hours, 41.67 μM",−33.64%
same,Cell death #1 (%),"MCF7, 24 hours, 125.00 μM",−13.51%
same,Cell death #2 (%),"MCF7, 24 hours, 125.00 μM",−8.13%
same,Cell death #3 (%),"MCF7, 24 hours, 125.00 μM",7.64%
same,Cell death (%) MEAN,"MCF7, 24 hours, 125.00 μM",−4.66%
same,Cell death #1 (%),"MCF7, 72 hours, 0.06 μM",−30.40%
same,Cell death #2 (%),"MCF7, 72 hours, 0.06 μM",−23.70%
same,Cell death #3 (%),"MCF7, 72 hours, 0.06 μM",−42.46%
same,Cell death (%) MEAN,"MCF7, 72 hours, 0.06 μM",−32.19%
same,Cell death #1 (%),"MCF7, 72 hours, 0.17 μM",−67.59%
same,Cell death #2 (%),"MCF7, 72 hours, 0.17 μM",−62.23%
same,Cell death #3 (%),"MCF7, 72 hours, 0.17 μM",−65.91%
same,Cell death (%) MEAN,"MCF7, 72 hours, 0.17 μM",−65.24%
same,Cell death #1 (%),"MCF7, 72 hours, 0.51 μM",−66.25%
same,Cell death #2 (%),"MCF7, 72 hours, 0.51 μM",−61.22%
same,Cell death #3 (%),"MCF7, 72 hours, 0.51 μM",−61.89%
same,Cell death (%) MEAN,"MCF7, 72 hours, 0.51 μM",−63.12%
same,Cell death #1 (%),"MCF7, 72 hours, 1.54 μM",−70.27%
same,Cell death #2 (%),"MCF7, 72 hours, 1.54 μM",−54.19%
same,Cell death #3 (%),"MCF7, 72 hours, 1.54 μM",−60.89%
same,Cell death (%) MEAN,"MCF7, 72 hours, 1.54 μM",−61.78%
same,Cell death #1 (%),"MCF7, 72 hours, 4.63 μM",−53.85%
same,Cell death #2 (%),"MCF7, 72 hours, 4.63 μM",−66.92%
same,Cell death #3 (%),"MCF7, 72 hours, 4.63 μM",−69.26%
same,Cell death (%) MEAN,"MCF7, 72 hours, 4.63 μM",−63.34%
same,Cell death #1 (%),"MCF7, 72 hours, 13.89 μM",−48.83%
same,Cell death #2 (%),"MCF7, 72 hours, 13.89 μM",−38.44%
same,Cell death #3 (%),"MCF7, 72 hours, 13.89 μM",−39.11%
same,Cell death (%) MEAN,"MCF7, 72 hours, 13.89 μM",−42.13%
same,Cell death #1 (%),"MCF7, 72 hours, 41.67 μM",−22.36%
same,Cell death #2 (%),"MCF7, 72 hours, 41.67 μM",−24.04%
same,Cell death #3 (%),"MCF7, 72 hours, 41.67 μM",−22.70%
same,Cell death (%) MEAN,"MCF7, 72 hours, 41.67 μM",−23.03%
same,Cell death #1 (%),"MCF7, 72 hours, 125.00 μM",88.19%
same,Cell death #2 (%),"MCF7, 72 hours, 125.00 μM",90.54%
same,Cell death #3 (%),"MCF7, 72 hours, 125.00 μM",89.20%
same,Cell death (%) MEAN,"MCF7, 72 hours, 125.00 μM",89.31%
"O=C1OCC(Cc2ccc3c(c2)OCO3)/C1=C\c1cccc(O)c1 (single isomer, unassigned) [Enantiomer B, 3-[(3,4-dimethoxyphenyl)cyclopentyl], 4-[(3-hydroxyphenol)methyl]oxolan-2-one]",Cell death #1 (%),"MCF7, 24 hours, 0.06 μM",−90.03%
same,Cell death #2 (%),"MCF7, 24 hours, 0.06 μM",−85.75%
same,Cell death #3 (%),"MCF7, 24 hours, 0.06 μM",−79.34%
same,Cell death (%) MEAN,"MCF7, 24 hours, 0.06 μM",−85.04%
same,Cell death #1 (%),"MCF7, 24 hours, 0.17 μM",−146.30%
same,Cell death #2 (%),"MCF7, 24 hours, 0.17 μM",−115.67%
same,Cell death #3 (%),"MCF7, 24 hours, 0.17 μM",−91.45%
same,Cell death (%) MEAN,"MCF7, 24 hours, 0.17 μM",−117.81%
same,Cell death #1 (%),"MCF7, 24 hours, 0.51 μM",−124.22%
same,Cell death #2 (%),"MCF7, 24 hours, 0.51 μM",−120.66%
same,Cell death #3 (%),"MCF7, 24 hours, 0.51 μM",−95.01%
same,Cell death (%) MEAN,"MCF7, 24 hours, 0.51 μM",−113.30%
same,Cell death #1 (%),"MCF7, 24 hours, 1.54 μM",−115.67%
same,Cell death #2 (%),"MCF7, 24 hours, 1.54 μM",−156.99%
same,Cell death #3 (%),"MCF7, 24 hours, 1.54 μM",−114.96%
same,Cell death (%) MEAN,"MCF7, 24 hours, 1.54 μM",−129.21%
same,Cell death #1 (%),"MCF7, 24 hours, 4.63 μM",−134.19%
same,Cell death #2 (%),"MCF7, 24 hours, 4.63 μM",−163.40%
same,Cell death #3 (%),"MCF7, 24 hours, 4.63 μM",−138.47%
same,Cell death (%) MEAN,"MCF7, 24 hours, 4.63 μM",−145.35%
same,Cell death #1 (%),"MCF7, 24 hours, 13.89 μM",−132.06%
same,Cell death #2 (%),"MCF7, 24 hours, 13.89 μM",−174.09%
same,Cell death #3 (%),"MCF7, 24 hours, 13.89 μM",−134.91%
same,Cell death (%) MEAN,"MCF7, 24 hours, 13.89 μM",−147.02%
same,Cell death #1 (%),"MCF7, 24 hours, 41.67 μM",−211.84%
same,Cell death #2 (%),"MCF7, 24 hours, 41.67 μM",−192.61%
same,Cell death #3 (%),"MCF7, 24 hours, 41.67 μM",−204.01%
same,Cell death (%) MEAN,"MCF7, 24 hours, 41.67 μM",−202.82%
same,Cell death #1 (%),"MCF7, 24 hours, 125.00 μM",63.85%
same,Cell death #2 (%),"MCF7, 24 hours, 125.00 μM",47.46%
same,Cell death #3 (%),"MCF7, 24 hours, 125.00 μM",63.13%
same,Cell death (%) MEAN,"MCF7, 24 hours, 125.00 μM",58.15%
same,Cell death #1 (%),"MCF7, 72 hours, 0.06 μM",−31.84%
same,Cell death #2 (%),"MCF7, 72 hours, 0.06 μM",−27.21%
same,Cell death #3 (%),"MCF7, 72 hours, 0.06 μM",−56.05%
same,Cell death (%) MEAN,"MCF7, 72 hours, 0.06 μM",−38.37%
same,Cell death #1 (%),"MCF7, 72 hours, 0.17 μM",−74.60%
same,Cell death #2 (%),"MCF7, 72 hours, 0.17 μM",−57.08%
same,Cell death #3 (%),"MCF7, 72 hours, 0.17 μM",−52.45%
same,Cell death (%) MEAN,"MCF7, 72 hours, 0.17 μM",−61.38%
same,Cell death #1 (%),"MCF7, 72 hours, 0.51 μM",−28.49%
same,Cell death #2 (%),"MCF7, 72 hours, 0.51 μM",−52.45%
same,Cell death #3 (%),"MCF7, 72 hours, 0.51 μM",−56.31%
same,Cell death (%) MEAN,"MCF7, 72 hours, 0.51 μM",−45.75%
same,Cell death #1 (%),"MCF7, 72 hours, 1.54 μM",−22.57%
same,Cell death #2 (%),"MCF7, 72 hours, 1.54 μM",−37.77%
same,Cell death #3 (%),"MCF7, 72 hours, 1.54 μM",−19.48%
same,Cell death (%) MEAN,"MCF7, 72 hours, 1.54 μM",−26.60%
same,Cell death #1 (%),"MCF7, 72 hours, 4.63 μM",−32.87%
same,Cell death #2 (%),"MCF7, 72 hours, 4.63 μM",−34.42%
same,Cell death #3 (%),"MCF7, 72 hours, 4.63 μM",−30.04%
same,Cell death (%) MEAN,"MCF7, 72 hours, 4.63 μM",−32.44%
same,Cell death #1 (%),"MCF7, 72 hours, 13.89 μM",−23.34%
same,Cell death #2 (%),"MCF7, 72 hours, 13.89 μM",−30.55%
same,Cell death #3 (%),"MCF7, 72 hours, 13.89 μM",−9.69%
same,Cell death (%) MEAN,"MCF7, 72 hours, 13.89 μM",−21.20%
same,Cell death #1 (%),"MCF7, 72 hours, 41.67 μM",−18.96%
same,Cell death #2 (%),"MCF7, 72 hours, 41.67 μM",−6.08%
same,Cell death #3 (%),"MCF7, 72 hours, 41.67 μM",17.10%
same,Cell death (%) MEAN,"MCF7, 72 hours, 41.67 μM",−2.65%
same,Cell death #1 (%),"MCF7, 72 hours, 125.00 μM",99.00%
same,Cell death #2 (%),"MCF7, 72 hours, 125.00 μM",99.52%
same,Cell death #3 (%),"MCF7, 72 hours, 125.00 μM",99.00%
same,Cell death (%) MEAN,"MCF7, 72 hours, 125.00 μM",99.17%
same,breast cancer cell death as compared to enterolactone,"MCF7, at higher concentrations, 24 hours and 72 hours post-treatment",increased breast cancer cell death as compared to enterolactone
